Earlier results, collected in PMC3665737 (Biochimica et biophysica acta, 2013).
Where a SMILES comes first, the peptide text is derived from it. [ ]: non-standard residue; d: D form. Nle = CCCC[C@H](N)C(=O)O

How the values were obtained:
PKA (C subunit) = settings: ALLN 500 μM, 30 min, 37 °C, ref [15]; for calpain dependence of induced PKA activity (effect of ALLN): oligomycin 5 μM, rotenone 10 μM, CCCP 5 μM, sodium azide 2 mM
PKA = settings: peptides 1 - 3, with 14-3-3 domain; ref [14]
[1] = system: regulatory subunits (RI and RII) of PKA; settings: bovine heart mitochondria exposed to digitonin; ref [15]
mitochondrial calpain = settings: bovine heart mitochondria; substrate N-succinyl-Leu-Tyr-7-amido-4-methylcoumarin; ref [15]
R subunit = settings: isolated R subunit; 10 μM CaCl2, 37 °C, 20 min; ref [15]
C subunit = settings: isolated C subunit; Ca^2+ ≥ 100 μM, 37 °C, 20 min; ref [15]
R2C2 holoenzyme = settings: 100 μM CaCl2, 0.5, 1.5, and 2.0 h, western blot, ref [15]

For `CCCC[C@@H](C=O)NC(=O)[C@H](CC(C)C)NC(=O)[C@H](CC(C)C)NC(C)=O` [ALLN, N-acetyl-Leu-Leu-Nle-al] (Ac-Leu-Leu-[Nle]-aldehyde), the “attenuation of PKA activity induced by rotenone, azide and CCCP” value (PKA (C subunit); western blot) is listed as “attenuated”.

In the case of `CCCCc1ccc(Nc2ccc(Nc3ccc(CCCC)cc3S(=O)(=O)[O-])c3c2C(=O)c2ccccc2C3=O)c(S(=O)(=O)[O-])c1.[Na+].[Na+]` [Acid green 27], the “PKA-induced fluorescence increase with quencher” value (PKA) is listed as “dramatic PKA-induced fluorescence increase”.

For `N#CC(C#N)=NNc1cccc(Cl)c1` [CCCP, chlorophenylhydrazone], the “calpain dependence of induced PKA activity (effect of ALLN)” value (from here on “calpain dependence”) (PKA (C subunit)) is listed as “attenuated by ALLN”.

For `[N-]=[N+]=[N-].[Na+]` [azide, sodium azide], the “calpain dependence” value (PKA (C subunit)) is listed as “attenuated by ALLN”.

For `C[C@@H]1CC[C@@]2(OC1)O[C@H]1[C@@H](O)[C@H]3[C@@H]4CC[C@H]5C[C@@H](O[C@@H]6O[C@H](CO)[C@H](O[C@@H]7O[C@H](CO)[C@@H](O)[C@H](O[C@@H]8OC[C@@H](O)[C@H](O)[C@H]8O)[C@H]7O[C@@H]7O[C@H](CO)[C@H](O)[C@H](O[C@@H]8O[C@H](CO)[C@@H](O)[C@H](O)[C@H]8O)[C@H]7O)[C@H](O)[C@H]6O)[C@H](O)C[C@]5(C)[C@H]4CC[C@]3(C)[C@H]1[C@@H]2C` [digitonin], the C subunit proteolysis [1] is given as “the catalytic subunit (C) remained intact” and the “activation of mitochondrial calpain” value (mitochondrial calpain) is given as “direct activation of mitochondrial calpain”.

In the case of `CC[C@H]1/C=C/C=C/C[C@@H](C)[C@H](O)[C@@](C)(O)C(=O)[C@@H](C)[C@H](O)[C@@H](C)C(=O)[C@@H](C)[C@H](O)[C@@H](C)/C=C/C(=O)O[C@@H]2[C@H](C)[C@H](CC1)O[C@]1(CC[C@H](C)[C@H](C[C@@H](C)O)O1)[C@H]2C` [oligomycin], the “calpain dependence” value (PKA (C subunit)) is given as “calpain independent”.

In the case of `C=C(C)[C@H]1Cc2c(ccc3c2O[C@@H]2COc4cc(OC)c(OC)cc4[C@@H]2C3=O)O1` [rotenone], the “calpain dependence” value (PKA (C subunit)) is listed as “attenuated by ALLN”.

B1: calpain I: Ca^2+-activated protease (protein, UniProt P07384 2-714; P04632 1-268, looked up)
Calpain-1 catalytic subunit: SEEIITPVYCTGVSAQVQKQRARELGLGRHENAIKYLGQDYEQLRVRCLQSGTLFRDEAFPPVPQSLGYKDLGPNSSKTYGIKWKRPTELLSNPQFIVDGATRTDICQGALGDCWLLAAIASLTLNDTLLHRVVPHGQSFQNGYAGIFHFQLWQFGEWVDVVVDDLLPIKDGKLVFVHSAEGNEFWSALLEKAYAKVNGSYEALSGGSTSEGFEDFTGGVTEWYELRKAPSDLYQIILKALERGSLLGCSIDISSVLDMEAITFKKLVKGHAYSVTGAKQVNYRGQVVSLIRMRNPWGEVEWTGAWSDSSSEWNNVDPYERDQLRVKMEDGEFWMSFRDFMREFTRLEICNLTPDALKSRTIRKWNTTLYEGTWRRGSTAGGCRNYPATFWVNPQFKIRLDETDDPDDYGDRESGCSFVLALMQKHRRRERRFGRDMETIGFAVYEVPPELVGQPAVHLKRDFFLANASRARSEQFINLREVSTRFRLPPGEYVVVPSTFEPNKEGDFVLRFFSEKSAGTVELDDQIQANLPDEQVLSEEEIDENFKALFRQLAGEDMEISVKELRTILNRIISKHKDLRTKGFSLESCRSMVNLMDRDGNGKLGLVEFNILWNRIRNYLSIFRKFDLDKSGSMSAYEMRMAIESAGFKLNKKLYELIITRYSEPDLAVDFDNFVCCLVRLETMFRFFKTLDTDLDGVVTFDLFKWLQLTMFA
Calpain small subunit 1: MFLVNSFLKGGGGGGGGGGGLGGGLGNVLGGLISGAGGGGGGGGGGGGGGGGGGGGTAMRILGGVISAISEAAAQYNPEPPPPRTHYSNIEANESEEVRQFRRLFAQLAGDDMEVSATELMNILNKVVTRHPDLKTDGFGIDTCRSMVAVMDSDTTGKLGFEEFKYLWNNIKRWQAIYKQFDTDRSGTICSSELPGAFEAAGFHLNEHLYNMIIRRYSDESGNMDFDNFISCLVRLDAMFRAFKSLDKDGTGQIQVNIQEWLQLTMYS
For B1, the R subunit digestion (R subunit) is listed as “selectively digested”, the C subunit digestion (C subunit) is listed as “partial proteolysis” and the “subunit proteolysis in holoenzyme” value (R2C2 holoenzyme) is listed as “proteolysis of the R subunit, but not the C subunit”.
